System: pUC19 plasmid DNA
Test: PDC-mediated pUC19 photocleavage, gel electrophoretic analysis
[1] = Air, +hv, 420-nm irradiation 1 hr, FIG. 15
[2] = Air, +hv, visible irradiation 1 hr, 21 W/m^2, FIG. 16
[3] = Ar, +hv, 420-nm irradiation 1 hr, FIG. 15
[4] = Ar, +hv, visible irradiation 1 hr, 21 W/m^2, FIG. 16

Procedure: FIG. 16: Gel electrophoretic analysis (1% agarose gel precast with 0.75 μg mL^−1 ethidium bromide, 1×TAE, 8 V cm^−1, 30 min.) of PDC-mediated pUC19 photocleavage in air-saturated and deoxygenated solution: visible irradiation of pUC19 (20 μM NP in 10 mM Tris·100 mM NaCl, pH 7.4) for 1 hr. with cool white fluorescent tubes, 21 W/m^2. Lanes 1 (−PDC, −hv), 2 (500 μM [Ru(bpy)3]^2+, −hv), and 5 (2 μM 10a, −hv) are controls. Lanes 3 (500 μM [Ru(bpy)3]^2+, +hv) and 6 (2 μM 10a, +hv) contain samples that were irradiated in air; lanes 4 and 7 are the corresponding samples irradiated in argon.
DNA photocleavage experiments were performed according to a general plasmid DNA assay with 20 μL total sample volumes in 0.5 or 1.5 mL microfuge tubes containing transformed pUC19 plasmid (200 ng, >95% Form I) in 10 mM MOPS buffer and 100 mM NaCl, pH 7.4. DNA (1-5 μL) was delivered to the assay tubes as a solution in 10 mM Tris-Cl (pH 8.5) and diluted with MOPS (pH 7.5, final concentration 10 mM) and NaCl (final concentration 100 mM). […] Complexes were dissolved initially in acetonitrile (2 μM stock solutions), and all subsequent dilutions were made with ddH2O where final assay tubes contained <1% acetonitrile. For concentration-based assays, samples (no pre-incubation period) were irradiated in air for 30 min with 420 nm light inside a photoreactor (Luzchem LZC-4X). Where irradiation of deoxygenated samples was required, argon was bubbled through the solutions for 15 min prior to irradiation under a positive pressure of argon. All samples were quenched by the addition of gel loading buffer (4 μL), loaded onto 1% agarose gels containing ethidium bromide (0.75 μg mL^−1), and electrophoresed for 30 min at 8-12 V cm^−1 in 1×TAE (40 mM Trisacetate, 1 mM EDTA, pH 8.2). The bands were visualized with UV-transillumination (UVP transilluminator) and quantified using the Gel Doc-It Imaging system (UVP) or GNU Image Manipulation Program (GIMP).

## [Ru+2].c1ccc(-c2ccccn2)nc1.c1ccc(-c2ccccn2)nc1.c1ccc(-c2ccccn2)nc1 [[Ru(bpy)^3]^2+]
[1]
  Form I: 33%
  Form II: 67%
[2]
  Form I: 37%
  Form II: 63%
Air, dark, 420-nm experiment FIG. 15
  Form II: 29%
Air, dark, 420-nm experiment FIG. 15, 300 μM [Ru(bpy)3]2+, 2 μM 10a, 4 μM 10b, 8 μM 14a
  Form I: 71%
Air, dark, visible experiment FIG. 16
  Form II: 28%
Air, dark, visible experiment FIG. 16, 500 μM [Ru(bpy)3]2+, 2 μM 10a
  Form I: 72%
[3]
  Form I: 71%
  Form II: 29%
[4]
  Form I: 57%
  Form II: 43%
